Patent US10301280B2 (Plexxikon Inc., priority 2012, dated 2019)

Target: c-kit kinase (Homo sapiens (Human), UniProt P10721)
Experiment: c-Kit biochemical assay (AlphaScreen)
Conditions: c-kit biochemical inhibitory activity
How it was run: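 AlphaScreen of biotin-(E4Y)3 (100 nM) phosphorylation by c-kit (0.1 ng) in HEPES pH 7.2, Mg/Mn, 10 μM ATP, 5% DMSO, 1 h at room temperature; variant uses 100 μM ATP, 30 nM biotin-(E4Y)10, 1 ng enzyme. PY20 acceptor/streptavidin donor signal versus 8-point concentration gives IC50.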

Chain of c-kit kinase (P10721 26-976): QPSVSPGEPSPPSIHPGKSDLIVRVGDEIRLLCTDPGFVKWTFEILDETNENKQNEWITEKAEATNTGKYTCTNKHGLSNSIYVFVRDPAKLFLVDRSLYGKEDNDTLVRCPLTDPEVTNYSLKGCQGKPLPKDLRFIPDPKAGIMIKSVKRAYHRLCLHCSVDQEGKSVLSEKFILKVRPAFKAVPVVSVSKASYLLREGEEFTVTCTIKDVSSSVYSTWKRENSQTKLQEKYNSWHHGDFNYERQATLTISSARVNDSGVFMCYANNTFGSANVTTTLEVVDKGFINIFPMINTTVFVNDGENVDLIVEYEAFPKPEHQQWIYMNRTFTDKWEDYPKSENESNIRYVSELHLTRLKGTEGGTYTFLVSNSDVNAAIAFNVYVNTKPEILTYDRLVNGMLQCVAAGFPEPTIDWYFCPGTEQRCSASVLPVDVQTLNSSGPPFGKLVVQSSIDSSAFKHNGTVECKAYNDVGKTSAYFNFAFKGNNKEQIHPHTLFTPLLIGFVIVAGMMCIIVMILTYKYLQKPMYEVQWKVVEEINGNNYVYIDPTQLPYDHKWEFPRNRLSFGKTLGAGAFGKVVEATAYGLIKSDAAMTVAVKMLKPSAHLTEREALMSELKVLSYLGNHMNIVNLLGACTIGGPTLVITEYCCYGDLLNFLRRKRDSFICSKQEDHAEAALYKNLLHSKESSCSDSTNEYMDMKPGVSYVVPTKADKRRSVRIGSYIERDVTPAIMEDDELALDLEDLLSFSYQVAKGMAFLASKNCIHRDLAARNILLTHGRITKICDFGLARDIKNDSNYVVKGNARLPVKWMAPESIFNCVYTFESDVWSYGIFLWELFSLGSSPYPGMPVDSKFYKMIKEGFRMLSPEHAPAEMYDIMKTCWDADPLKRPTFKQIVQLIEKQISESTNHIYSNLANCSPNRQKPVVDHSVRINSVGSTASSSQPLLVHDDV

| SMILES | IC50 |
| --- | --- |
| CCNS(=O)(=O)c1cccc(Nc2ncc(NC(=O)c3[nH]nc(C)c3C)cn2)c1 [P-2050, N-[2-[3-(ethylsulfamoyl)anilino]pyrimidin-5-yl]-3,4-dimethyl-1H-pyrazole-5-carboxamide] | 10 to 200 µM |
| CCCS(=O)(=O)Nc1cccc(Nc2ncc(NC(=O)c3[nH]nc(C)c3C)cn2)c1 [P-2052, 3,4-dimethyl-N-[2-[3-(propylsulfonylamino)anilino]pyrimidin-5-yl]-1H-pyrazole-5-carboxamide] | 1 to 10 µM |
| Cc1n[nH]c(C(=O)Nc2cnc3[nH]c(-c4ccnc(N5CCN(C(=O)CC#N)CC5)c4)cc3c2)c1C [P-2189, N-[2-[2-[4-(2-cyanoacetyl)piperazin-1-yl]-4-pyridyl]-1H-pyrrolo[2,3-b]pyridin-5-yl]-3,4-dimethyl-1H-pyrazole-5-carboxamide] | 0.0001 to 1 µM |
| Cc1n[nH]c(C(=O)Nc2cnc3[nH]c(-c4ccncc4Cl)cc3c2)c1C [P-2278, N-[2-(3-chloro-4-pyridyl)-H-pyrrolo[2,3-b]pyridin-5-yl]-3,4-dimethyl-1H-pyrazole-5-carboxamide] | 10 to 200 µM |
| O=C(Nc1cnc2[nH]c(-c3ccc(F)cc3)cc2c1)c1n[nH]c2c1CCCC2 [P-2047, N-[2-(4-fluorophenyl)-1H-pyrrolo[2,3-b]pyridin-5-yl]-4,5,6,7-tetrahydro-1H-indazole-3-carboxamide] | 10 to 200 µM |
| Cc1n[nH]c(C(=O)Nc2cnc3[nH]c(Cl)cc3c2)c1C [P-2049, N-(2-chloro-1H-pyrrolo[2,3-b]pyridin-5-yl)-3,4-dimethyl-1H-pyrazole-5-carboxamide] | 10 to 200 µM |
| [2H]c1c([2H])c([2H])c(-c2cc3cc(NC(=O)c4[nH]nc(C)c4C)cnc3[nH]2)c([2H])c1[2H] [P-2164, 3,4-dimethyl-N-[2-(2,3,4,5,6-pentadeuteriophenyl)-1H-pyrrolo[2,3-b]pyridin-5-yl]-1H-pyrazole-5-carboxamide] | 1 to 10 µM |
| Cc1cncc(-c2cc3cc(NC(=O)c4[nH]nc(C)c4C)cnc3[nH]2)c1 [P-2184, 3,4-dimethyl-N-[2-(5-methyl-3-pyridyl)-1H-pyrrolo[2,3-b]pyridin-5-yl]-1H-pyrazole-5-carboxamide] | 1 to 10 µM |
| Cc1n[nH]c(C(=O)Nc2cnc3[nH]c(-c4ccc(F)cc4OC(F)F)cc3c2)c1C [P-2268, N-[2-[2-(difluoromethoxy)-4-fluoro-phenyl]-1H-pyrrolo[2,3-b]pyridin-5-yl]-3,4-dimethyl-1H-pyrazole-5-carboxamide] | 1 to 10 µM |
| Cc1n[nH]c(C(=O)Nc2cnc3[nH]c(-c4ccnc5c4OCCO5)cc3c2)c1C [P-2179, N-[2-(2,3-dihydro-[1,4]dioxino[2,3-b]pyridin-8-yl)-1H-pyrrolo[2,3-b]pyridin-5-yl]-3,4-dimethyl-H-pyrazole-5-carboxamide] | 1 to 10 µM |
| Cc1nn(C2CNC2)cc1-c1cc2cc(NC(=O)c3[nH]nc(C)c3C)cnc2[nH]1 [P-2286, N-[2-[1-(azetidin-3-yl)-3-methyl-pyrazol-4-yl]-1H-pyrrolo[2,3-b]pyridin-5-yl]-3,4-dimethyl-1H-pyrazole-5-carboxamide] | 0.0001 to 1 µM |
| Cc1n[nH]c(C(=O)Nc2cnc3[nH]c(-c4cccc(CC(=O)O)c4)cc3c2)c1C [P-2293, 2-[3-[5-[(3,4-dimethyl-1H-pyrazole-5-carbonyl)amino]-1H-pyrrolo[2,3-b]pyridin-2-yl]phenyl]acetic acid] | 0.0001 to 1 µM |
| O=C(O)c1cccc(C(=O)Nc2cnc3[nH]c(-c4ccccc4)cc3c2)c1 [P-2291, 3-[(2-phenyl-1H-pyrrolo[2,3-b]pyridin-5-yl)carbamoyl]benzoic acid] | 10 to 200 µM |
| Cc1n[nH]nc1C(=O)Nc1cnc2[nH]c(-c3ccc(F)cc3)cc2c1 [P-2037, N-[2-(4-fluorophenyl)-1H-pyrrolo[2,3-b]pyridin-5-yl]-5-methyl-2H-triazole-4-carboxamide] | 1 to 10 µM |
| Cc1cc(C(=O)Nc2cnc3[nH]c(N4CCOCC4)cc3c2)[nH]n1 [P-2058, 3-methyl-N-(2-morpholino-1H-pyrrolo[2,3-b]pyridin-5-yl)-1H-pyrazole-5-carboxamide] | 10 to 200 µM |
| Cc1n[nH]c(C(=O)Nc2cnc3[nH]c(-c4cccc5c4OC(F)(F)O5)cc3c2)c1C [P-2281, N-[2-(2,2-difluoro-1,3-benzodioxol-4-yl)-1H-pyrrolo[2,3-b]pyridin-5-yl]-3,4-dimethyl-1H-pyrazole-5-carboxamide] | 10 to 200 µM |
| Cc1cc(Cl)ccc1-c1cc2cc(NC(=O)c3[nH]nc(C)c3C)cnc2[nH]1 [P-2277, N-[2-(4-chloro-2-methyl-phenyl)-1H-pyrrolo[2,3-b]pyridin-5-yl]-3,4-dimethyl-1H-pyrazole-5-carboxamide] | 10 to 200 µM |
| Cc1n[nH]c(C(=O)Nc2cnc(Nc3cccc(N4CCOCC4)c3)nc2)c1C [P-2051, 3,4-dimethyl-N-[2-(3-morpholinoanilino)pyrimidin-5-yl]-1H-pyrazole-5-carboxamide] | 0.0001 to 1 µM |
| Cc1n[nH]c(C(=O)Nc2cnc3[nH]c(C4=CCN(S(C)(=O)=O)CC4)cc3c2)c1Cl [P-2057, 4-chloro-3-methyl-N-[2-(1-methylsulfonyl-3,6-dihydro-2H-pyridin-4-yl)-1H-pyrrolo[2,3-b]pyridin-5-yl]-1H-pyrazole-5-carboxamide] | 0.0001 to 1 µM |
| Cc1n[nH]c(C(=O)Nc2cnc3[nH]c(-c4ccc(C(=O)O)c(F)c4)cc3c2)c1C [P-2292, 4-[5-[(3,4-dimethyl-1H-pyrazole-5-carbonyl)amino]-1H-pyrrolo[2,3-b]pyridin-2-yl]-2-fluoro-benzoic acid] | 0.0001 to 1 µM |
| Cc1n[nH]c(C(=O)Nc2cnc3[nH]nc(-c4cccc(N5CCN(C(=O)OC(C)(C)C)CC5)c4)c3c2)c1C [P-2162, tert-butyl 4-[3-[5-[(3,4-dimethyl-1H-pyrazole-5-carbonyl)amino]-1H-pyrazolo[3,4-b]pyridin-3-yl]phenyl]piperazine-1-carboxylate] | 0.0001 to 1 µM |
| Cc1n[nH]c(C(=O)Nc2ccc(Nc3ccccc3)nc2)c1C [P-2045, N-(6-anilino-3-pyridyl)-3,4-dimethyl-1H-pyrazole-5-carboxamide] | 10 to 200 µM |
| O=C(Nc1cnc2[nH]c(-c3ccccc3)cc2c1)c1cccc2n[nH]cc12 [P-2289, N-(2-phenyl-1H-pyrrolo[2,3-b]pyridin-5-yl)-2H-indazole-4-carboxamide] | 0.0001 to 1 µM |
| Cc1n[nH]c(C(=O)Nc2cnc3[nH]c(-c4ccnc(N5CCN(S(C)(=O)=O)CC5)c4)cc3c2)c1C [P-2186, 3,4-dimethyl-N-[2-[2-(4-methylsulfonylpiperazin-1-yl)-4-pyridyl]-1H-pyrrolo[2,3-b]pyridin-5-yl]-1H-pyrazole-5-carboxamide] | 1 to 10 µM |
| Cc1n[nH]c(C(=O)Nc2cnc3[nH]c(-c4ccccc4C(F)(F)F)cc3c2)c1C [P-2180, 3,4-dimethyl-N-[2-[2-(trifluoromethyl)phenyl]-1H-pyrrolo[2,3-b]pyridin-5-yl]-1H-pyrazole-5-carboxamide] | 1 to 10 µM |
| CNC(=O)c1cccc(Nc2ncc(NC(=O)c3[nH]nc(C)c3C)cn2)c1 [P-2054, 3,4-dimethyl-N-[2-[3-(methylcarbamoyl)anilino]pyrimidin-5-yl]-1H-pyrazole-5-carboxamide] | 1 to 10 µM |
| Cc1cc(C(=O)Nc2cnc3[nH]c(C4=CCN(C(=O)C5CC5)CC4)cc3c2)n[nH]1 [P-2042, N-[2-[1-(cyclopropanecarbonyl)-3,6-dihydro-2H-pyridin-4-yl]-1H-pyrrolo[2,3-b]pyridin-5-yl]-5-methyl-1H-pyrazole-3-carboxamide] | 0.0001 to 1 µM |
